# Source: article PMC11096368, “Transcriptomic signature, bioactivity and safety of a non-hepatotoxic analgesic generating AM404 in the midbrain PAG region” (Scientific Reports, 2024)
# “Also recorded” adds a separate entry of the source.
# Assays:
# [1] = tested on: FAAH, CORO2A, and RPL7L1 expression; experiment: Single-cell RNA sequencing of midbrain PAG in the CFA model; format: in vivo; conditions: 100 mg/kg, 1 h, CFA rats
# [2] = Stability of API and oral nanosuspension; format: physicochemical
# Procedure: The drug therapeutic candidate is manufactured in a two-step process (Latitude Pharmaceuticals, Inc., San Diego, CA, USA). First, SRP-001 is jet milled. Second, the milled API is dispersed in a solution comprising 1% hydroxypropyl cellulose (1% HPC) and sterile water for injection and subjected to wet milling. The target particle size is approximately D90 0.15 μm. […] An oral nanoparticle suspension containing 100 mg/mL SRP-001 in aqueous 1% HPC preserved with 0.1% sodium benzoate was manufactured for use in nonclinical studies as Lot LPI2021028 and stored at 5 °C ± 3 °C. […] The same formulation as above was manufactured under cGMP for use in clinical studies as Lot LPI2021031 and stored at 5 °C ± 3 °C. […] This lot has been placed on stability at 5 °C, 25 °C/60%RH, and 40 °C/75%RH. Finally, an appearance-matched placebo consisting of 2% microcrystalline cellulose in aqueous 1% HPC preserved with 0.1% sodium benzoate and 0.05% EDTA disodium dihydrate was manufactured under cGMP for use in clinical studies. The above oral suspensions were manufactured by Latitude Pharmaceuticals Inc. (San Diego, CA, USA).
# [3] = tested on: Rat liver and stomach cells; experiment: In vivo mammalian alkaline comet assay; set-up: species or system rats
# Procedure: Male Sprague–Dawley rats were orally administered SRP-001 at 500, 1000, or 2000 mg/kg/dose for two consecutive days at a dose volume of 10 mL/kg/dose (Bioreliance, Rockville, MD USA). The vehicle control was 10% Labrasol, 10% DMSO, and 80% PEG400. The positive control for the Comet assay, ethyl methanesulfonate (EMS), was orally administered at 200 mg/kg/dose for two consecutive days at a dose volume of 10 mL/kg/dose. […] Animals were euthanized 3–4 h after the last dose administration. The liver and glandular stomach were collected and processed for comet evaluation.
# The group mean % tail DNA for the vehicle control was within the 95% control limit of the study historical data range, with one animal (#160) exceeding the individual animal 95% control limit but within the minimum/maximum range. Additionally, three animals (#173, 174, and 175) in the mid-dose (1000 mg/kg/dose) group likewise exceeded the individual animal 95% control limit but were within the minimum/maximum range.
# The group mean % tail DNA for the vehicle control was within the 95% control limit of the study historical data range, with one animal (#158) exceeding both the individual animal 95% control limit and minimum/maximum ranges. One animal (#171) in the mid-dose (1000 mg/kg/dose) group and one animal (#180) in the high-dose (2000 mg/kg/dose) group exceeded just the 95% control limit range but were within the minimum/maximum range. One animal (#170) in the mid-dose (1000 mg/kg/dose) group and one animal (#179) in the high-dose (2000 mg/kg/dose) group exceeded both the individual animal 95% control limit and minimum/maximum ranges.
# dog = experiment: Maximum tolerated dose study, single dose (non-GLP); format: in vivo
# Procedure: To determine the appropriate doses, maximum tolerated dose studies (non-GLP) were conducted prior to the definitive GLP systemic toxicity studies. SRP-001 was evaluated by a full battery of GLP-compliant toxicity studies. Systemic toxicity was evaluated in Sprague–Dawley rats and Beagle dogs by oral administration over 28 days (Supplementary Fig. 19 and Supplementary Table 2). Importantly, no treatment-related adverse effects were seen during 28 days of daily oral doses of SRP-001 in rats at doses up to 1500 mg/kg/day or in dogs at doses up to 330 mg/kg/day.
# beagle dogs = experiment: Cardiovascular effect in conscious telemetered beagle dogs (GLP); format: in vivo, dog; conditions: oral, 30, 90, 150 mg/kg
# Procedure: The effects of SRP-001 on hERG current amplitude at physiologic temperatures were evaluated over a nominal concentration range of 0.1 μM to […]. A vehicle group (10% DMSO) was included in the study for comparison, and dofetilide (10 nM) was used as a reference substance. The vehicle and positive controls indicated appropriate sensitivity of the test systems. […] Next, the potential acute effects of oral SRP-001 on cardiovascular function in conscious telemetered beagle dogs was done using a Latin Square design; 4 male naïve beagle dogs each received vehicle (10% DMSO: 10% labrasol: 80% PEG400) and three doses (30, 90, and 150 mg/kg) of SRP-001 nanosuspension by oral gavage. […] A single dose was administered on the day of dosing, and a washout period of seven days was allowed between doses. One-min means of hemodynamic parameters, as well as ECG parameters and body temperature, were measured for a period of at least 24 h. One-min tracings of the ECGs were obtained at 15 min prior to dosing and at 30 min, 1, 2, 4, 8, 12, and 24 h post-dose. Qualitative evaluation of the ECGs was done by a board-certified veterinary cardiologist.
smiles,measurement,setting,value
"CCN(CC)C(=O)c1ccccc1S(=O)(=O)NCC(=O)Nc1ccc(O)cc1 [SRP-001, N,N-diethyl-2-[[2-(4-hydroxyanilino)-2-oxo-ethyl]sulfamoyl]benzamide]","Expression of FAAH, CORO2A, and RPL7L1 in PAG (scRNAseq)",[1],Downregulation
same,Stability of the API,[2]; 25 °C/60%RH,at least 9 months
same,Stability of the API,[2]; 40 °C/75%RH,≥ 6 months
same,"% tail DNA, glandular stomach","[3]; 500, 1000, 2000 mg/kg/dose",No statistically significant increases
same,"% tail DNA, liver","[3]; 500, 1000, 2000 mg/kg/dose",No statistically significant increases
same,Comet assay result (DNA damage in liver and stomach),"[3]; up to 2000 mg/kg/dose, two consecutive days, oral",negative; also recorded: negative (non-DNA damaging)
same,Single doses that did not result in any mortality,dog,≤ 1200 mg/kg
same,"Cardiovascular findings (blood pressure, heart rate, ECG, body temperature)",beagle dogs,did not induce any biologically relevant effects; also recorded: No significant findings
